Experiments:
Type in all cases: biochemical
ITK = ITK (Homo sapiens (Human), UniProt Q08881); test: IC50 against ITK
TXK = TXK (Homo sapiens (Human), UniProt P42681); test: IC50 against TXK; settings: for TXK/ITK: ratio of TXK IC50 to ITK IC50
JAK3 = JAK3 (Homo sapiens (Human), UniProt P52333); test: IC50 against JAK3
BTK = BTK (Homo sapiens (Human), UniProt Q06187); test: IC50 against BTK
BTK, sequence (Q06187 whole entry, species assumed): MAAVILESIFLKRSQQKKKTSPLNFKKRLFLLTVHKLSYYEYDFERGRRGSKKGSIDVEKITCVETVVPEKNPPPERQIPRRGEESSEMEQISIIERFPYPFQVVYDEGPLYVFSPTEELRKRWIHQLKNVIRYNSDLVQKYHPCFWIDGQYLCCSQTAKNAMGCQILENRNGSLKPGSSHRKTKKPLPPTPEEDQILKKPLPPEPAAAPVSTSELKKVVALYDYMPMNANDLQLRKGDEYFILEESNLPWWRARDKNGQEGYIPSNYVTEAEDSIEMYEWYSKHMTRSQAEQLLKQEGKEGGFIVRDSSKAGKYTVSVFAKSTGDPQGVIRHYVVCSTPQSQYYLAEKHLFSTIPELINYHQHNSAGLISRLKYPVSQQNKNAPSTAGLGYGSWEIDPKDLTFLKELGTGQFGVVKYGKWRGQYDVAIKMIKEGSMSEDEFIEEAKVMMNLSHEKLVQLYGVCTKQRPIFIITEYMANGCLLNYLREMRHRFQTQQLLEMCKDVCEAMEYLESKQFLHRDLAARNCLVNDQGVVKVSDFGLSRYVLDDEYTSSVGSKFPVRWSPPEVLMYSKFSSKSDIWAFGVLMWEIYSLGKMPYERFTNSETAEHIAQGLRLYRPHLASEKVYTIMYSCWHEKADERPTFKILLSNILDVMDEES

TXK, sequence (P42681 whole entry, species assumed): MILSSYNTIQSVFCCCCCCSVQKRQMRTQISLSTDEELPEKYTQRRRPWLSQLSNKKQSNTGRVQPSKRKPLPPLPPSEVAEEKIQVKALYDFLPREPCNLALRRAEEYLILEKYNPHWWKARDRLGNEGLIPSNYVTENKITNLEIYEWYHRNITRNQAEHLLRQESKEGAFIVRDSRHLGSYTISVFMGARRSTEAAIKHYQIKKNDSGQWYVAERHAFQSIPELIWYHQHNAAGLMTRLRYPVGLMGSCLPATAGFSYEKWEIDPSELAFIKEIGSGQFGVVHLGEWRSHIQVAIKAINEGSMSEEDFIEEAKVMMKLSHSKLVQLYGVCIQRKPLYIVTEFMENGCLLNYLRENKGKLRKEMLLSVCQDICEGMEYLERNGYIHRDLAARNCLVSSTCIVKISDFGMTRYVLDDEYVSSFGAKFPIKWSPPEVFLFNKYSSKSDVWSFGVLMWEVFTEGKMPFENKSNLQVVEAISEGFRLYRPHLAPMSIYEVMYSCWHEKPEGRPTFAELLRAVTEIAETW
ITK, sequence (Q08881 whole entry): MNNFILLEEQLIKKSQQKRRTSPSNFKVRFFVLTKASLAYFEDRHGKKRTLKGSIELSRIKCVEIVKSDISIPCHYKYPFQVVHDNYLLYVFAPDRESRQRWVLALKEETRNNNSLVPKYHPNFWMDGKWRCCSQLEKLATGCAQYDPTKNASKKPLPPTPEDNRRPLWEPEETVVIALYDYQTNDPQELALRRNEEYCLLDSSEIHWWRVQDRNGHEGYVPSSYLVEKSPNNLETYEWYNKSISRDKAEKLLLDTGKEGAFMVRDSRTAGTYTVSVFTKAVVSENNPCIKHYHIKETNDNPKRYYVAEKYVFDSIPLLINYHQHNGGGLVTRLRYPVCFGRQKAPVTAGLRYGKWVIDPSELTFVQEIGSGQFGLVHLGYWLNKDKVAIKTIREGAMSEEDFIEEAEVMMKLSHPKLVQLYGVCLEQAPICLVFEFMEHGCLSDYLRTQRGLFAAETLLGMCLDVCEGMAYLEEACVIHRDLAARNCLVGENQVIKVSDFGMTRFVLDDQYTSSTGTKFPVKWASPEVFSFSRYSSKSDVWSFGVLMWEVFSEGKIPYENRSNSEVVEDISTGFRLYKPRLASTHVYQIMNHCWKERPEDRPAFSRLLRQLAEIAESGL
JAK3, sequence (P52333 whole entry, species assumed): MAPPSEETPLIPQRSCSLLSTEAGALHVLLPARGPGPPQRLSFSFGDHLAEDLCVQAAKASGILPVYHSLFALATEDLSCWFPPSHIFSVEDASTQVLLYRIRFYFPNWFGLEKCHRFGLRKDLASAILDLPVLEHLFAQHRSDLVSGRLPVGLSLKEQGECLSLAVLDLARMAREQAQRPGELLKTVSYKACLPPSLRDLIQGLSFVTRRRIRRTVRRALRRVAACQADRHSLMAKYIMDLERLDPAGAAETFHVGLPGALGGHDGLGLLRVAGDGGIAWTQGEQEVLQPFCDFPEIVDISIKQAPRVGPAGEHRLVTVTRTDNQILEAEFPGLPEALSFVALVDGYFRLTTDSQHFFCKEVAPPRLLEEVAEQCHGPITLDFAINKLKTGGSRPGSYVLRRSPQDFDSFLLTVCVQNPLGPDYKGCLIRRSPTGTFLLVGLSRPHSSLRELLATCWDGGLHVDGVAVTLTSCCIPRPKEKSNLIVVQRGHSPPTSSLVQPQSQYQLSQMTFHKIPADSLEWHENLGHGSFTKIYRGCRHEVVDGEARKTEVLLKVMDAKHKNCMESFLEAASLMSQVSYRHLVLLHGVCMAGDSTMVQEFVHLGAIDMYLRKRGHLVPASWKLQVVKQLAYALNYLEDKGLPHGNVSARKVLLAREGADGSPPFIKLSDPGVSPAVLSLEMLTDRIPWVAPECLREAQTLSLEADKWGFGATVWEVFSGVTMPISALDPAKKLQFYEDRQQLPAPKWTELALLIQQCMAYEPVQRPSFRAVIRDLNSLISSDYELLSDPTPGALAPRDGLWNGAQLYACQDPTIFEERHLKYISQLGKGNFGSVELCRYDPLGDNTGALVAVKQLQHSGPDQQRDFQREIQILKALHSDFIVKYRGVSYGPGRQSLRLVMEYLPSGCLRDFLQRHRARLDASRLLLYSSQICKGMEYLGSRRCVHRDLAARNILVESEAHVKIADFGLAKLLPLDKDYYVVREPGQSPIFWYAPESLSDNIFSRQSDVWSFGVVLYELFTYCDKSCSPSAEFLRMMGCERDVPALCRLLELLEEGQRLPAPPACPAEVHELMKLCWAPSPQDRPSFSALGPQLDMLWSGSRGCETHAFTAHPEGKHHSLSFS

Row | Structure (SMILES) | IC50 (ITK) | IC50 (TXK) | TXK/ITK (TXK) | IC50 (JAK3) | IC50 (BTK)
1 | C=CC(=O)N1CCCN(C(=O)c2cc(Sc3cnc(NC(=O)C4CC4)s3)c(C)cc2C)C[C@H]1CC [Compound 112] | < 10 nM | 100 to 1000 nM | 118.0 | 1000 to 10000 nM | 100 to 1000 nM
2 | C=CC(=O)N1CCN(C(=O)c2cc(Sc3cnc(NC(=O)c4ccsc4)s3)c(C)cc2OC)C[C@H]1CC [Compound 113] | < 10 nM | 10 to 100 nM | 12.1 | 100 to 1000 nM | 10 to 100 nM
3 | C=CC(=O)N1CCN(C(=O)c2cc(Sc3cnc(NC(=O)c4cnsc4)s3)c(C)cc2OC)C[C@H]1CC [Compound 114] | < 10 nM | 10 to 100 nM | 30.1 | 1000 to 10000 nM | 100 to 1000 nM
4 | C=CC(=O)N1CCN(C(=O)c2cc(Sc3cnc(NC(=O)c4cnn(C)c4)s3)c(C)cc2OC)C[C@H]1CC [Compound 115] | < 10 nM | 10 to 100 nM | 9.8 | 1000 to 10000 nM | 100 to 1000 nM
5 | C=CC(=O)N1CCN(C(=O)c2cc(Sc3cnc(NC(=O)c4cnn(CCN(C)C)c4)s3)c(C)cc2OC)C[C@H]1CC [Compound 116] | < 10 nM | 10 to 100 nM | 23.3 | 1000 to 10000 nM | 100 to 1000 nM
6 | C=CC(=O)N1CCN(C(=O)c2cc(Sc3cnc(NC(=O)c4cccc(CN(C)C)c4)s3)c(C)cc2OC)C[C@H]1CC [Compound 117] | < 10 nM | 10 to 100 nM | 65.5 | 1000 to 10000 nM | 100 to 1000 nM
7 | C=CC(=O)N1CCN(C(=O)c2cc(Sc3cnc(NC(=O)C4CC4)s3)c(C)cc2C)C[C@H]1C#N [Compound 118] | ≥ 10000 nM | < 10 nM | – | < 10 nM | < 10 nM
8 | C=CC(=O)N1CCN(C(=O)c2cc(Sc3cnc(NC(C)=O)s3)c(C)cc2C)C[C@H]1C#N [Compound 119] | < 10 nM | < 10 nM | 3.2 | < 10 nM | 10 to 100 nM
9 | C=CC(=O)N1CCCN(C(=O)c2cc(Sc3cnc(NC(=O)c4ccsc4)s3)c(C)cc2OC)C[C@H]1CC [Compound 120] | < 10 nM | 100 to 1000 nM | 66.4 | 1000 to 10000 nM | 100 to 1000 nM
10 | C=CC(=O)N1CCCN(C(=O)c2cc(Sc3cnc(NC(=O)c4cnsc4)s3)c(C)cc2OC)C[C@H]1CC [Compound 121] | < 10 nM | 100 to 1000 nM | 146.1 | 1000 to 10000 nM | 100 to 1000 nM
11 | C=CC(=O)N1CCCN(C(=O)c2cc(Sc3cnc(NC(=O)c4ccsc4)s3)c(C)cc2C)C[C@H]1CC [Compound 122] | < 10 nM | 100 to 1000 nM | 118.5 | 100 to 1000 nM | 100 to 1000 nM
12 | C=CC(=O)N1CCCN(C(=O)c2cc(Sc3cnc(NC(=O)c4cnsc4)s3)c(C)cc2C)C[C@H]1CC [Compound 123] | < 10 nM | 100 to 1000 nM | 144.0 | 1000 to 10000 nM | 100 to 1000 nM
13 | C=CC(=O)N1CCN(C(=O)c2cc(Sc3cnc(NC(=O)c4cccc(CN(C)C)c4)s3)c(C)cc2OC)C[C@H]1C#N [Compound 124] | < 10 nM | < 10 nM | – | < 10 nM | < 10 nM
14 | C=CC(=O)N1CCN(C(=O)c2cc(Sc3cnc(NC(=O)c4cccc(CN(C)C)c4)s3)c(C)cc2C)C[C@H]1C#N [Compound 125] | < 10 nM | < 10 nM | 2.3 | < 10 nM | 10 to 100 nM
15 | C=CC(=O)N1CCN(C(=O)c2cc(Sc3cnc(Nc4ccccn4)s3)c(Cl)cc2C)CC1 [Compound 126] | < 10 nM | 10 to 100 nM | 13.5 | 10 to 100 nM | 10 to 100 nM
16 | C=CC(=O)N1CCCN(C(=O)c2cc(Cc3cnc(NC(=O)C4CC4)s3)c(C)cc2C)C[C@H]1C [Compound 127] | 10 to 100 nM | 100 to 1000 nM | 7.6 | ≥ 10000 nM | 100 to 1000 nM
17 | C=CC(=O)N1CCCN(C(=O)c2cc(Cc3cnc(NC(=O)C4CC4)s3)c(C)cc2OC)C[C@H]1C [Compound 128] | 10 to 100 nM | 100 to 1000 nM | 12.8 | ≥ 10000 nM | 100 to 1000 nM

Source: US11008314B2, “Compounds and methods for modulating interleukin-2-inducible t-cell kinase” (CORVUS PHARMACEUTICALS, INC., priority 2016, dated 2021)
